# Experimental data: patent publication EP2982368A1, “Small molecule compounds displacing focal adhesion core components” (Universität Konstanz, priority 2014, dated 2016)
# Molecular target: T1, FAK/Paxillin (Mus musculus, UniProt P34152+Q8VI36)
# T1 construct: expressed in transfected cells; host or cells: mouse fibroblasts stably expressing GFP-FAK
# Assay: FAK/Paxillin displacement by structurally related compounds (FootLocker series, confocal microscopy)
# Type: cell-based
# Design: key to Activtiy (activity towards FAK/Paxillin displacement): ++ indicates displacing effect at 5 µM; + at 20 µM; - indicates no observed effect
# Conditions: not given
# Procedure: To determine whether compounds structurally related to Mb31 and Mb36 are likewise suitable to interfere with FAK localization at focal adhesions, mouse fibroblasts stably expressing GFP-FAK were treated for 30 min with 1, 10 or 20 µM of the following compounds: trans-3-hydroxy-β-nitrostyrene (THBN), trans-4-Chloro-β-nitrostyrene (T4CN), trans-β-nitrostyrene (TBN), 4-chlorocinnamic acid (4CA), and trans-3-(4-bromothiophen-2-yl)acrylic acid (T34BA) (Figures 16 and 17). The cells were analyzed by confocal microscopy for GFP-FAK localization. DMSO treatment served as a vehicle control. […] Additional substituents at the aromatic structures, such as halogen atoms or hydroxy groups may contribute to the reactivity of the compound, but are not essential. Based on these findings, the inventors have extended their structure activity-relationship studies and synthesized additional related compounds, which, similar to Mb31, displace FAK and paxillin at concentrations below 10µM (++), displace FAK and paxillin at concentrations above 10 µM (+), or lack FAK and paxillin displacing activity (-). All these substances were then also nicknamed in the FLocker terminology, resulting in FLocker1 - FLocker24 (Table 2). Table 2: Overview of FootLocker nomenclature, their chemical notation/structure and the activity towards FAK/Paxillin displacement
# T1 sequence (P34152 whole entry): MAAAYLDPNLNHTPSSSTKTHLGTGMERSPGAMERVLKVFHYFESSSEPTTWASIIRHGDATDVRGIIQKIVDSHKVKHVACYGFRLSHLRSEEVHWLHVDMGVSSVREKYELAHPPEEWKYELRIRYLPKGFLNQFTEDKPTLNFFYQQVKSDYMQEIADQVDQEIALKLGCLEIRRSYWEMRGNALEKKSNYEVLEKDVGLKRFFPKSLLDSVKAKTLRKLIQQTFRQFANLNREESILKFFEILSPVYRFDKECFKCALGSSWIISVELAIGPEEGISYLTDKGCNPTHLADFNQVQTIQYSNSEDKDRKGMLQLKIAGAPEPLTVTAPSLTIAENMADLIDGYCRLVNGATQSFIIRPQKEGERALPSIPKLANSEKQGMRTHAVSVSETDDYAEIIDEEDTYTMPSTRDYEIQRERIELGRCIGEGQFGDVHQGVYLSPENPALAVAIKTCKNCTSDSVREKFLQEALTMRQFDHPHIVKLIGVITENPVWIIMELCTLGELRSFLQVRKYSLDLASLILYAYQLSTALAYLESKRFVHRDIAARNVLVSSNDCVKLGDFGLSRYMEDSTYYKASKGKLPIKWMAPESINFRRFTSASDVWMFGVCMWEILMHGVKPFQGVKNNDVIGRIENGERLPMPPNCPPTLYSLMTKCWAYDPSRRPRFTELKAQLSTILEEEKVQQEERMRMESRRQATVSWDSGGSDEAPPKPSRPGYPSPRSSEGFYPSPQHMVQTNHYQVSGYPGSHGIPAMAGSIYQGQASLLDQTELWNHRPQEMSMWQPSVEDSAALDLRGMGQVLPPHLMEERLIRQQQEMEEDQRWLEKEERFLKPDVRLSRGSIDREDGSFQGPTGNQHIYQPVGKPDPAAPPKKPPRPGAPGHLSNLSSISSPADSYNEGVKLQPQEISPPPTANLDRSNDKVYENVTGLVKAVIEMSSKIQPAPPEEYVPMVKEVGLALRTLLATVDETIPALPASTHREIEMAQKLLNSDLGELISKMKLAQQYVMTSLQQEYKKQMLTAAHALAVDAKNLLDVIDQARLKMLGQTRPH
# T1 sequence (Q8VI36 whole entry): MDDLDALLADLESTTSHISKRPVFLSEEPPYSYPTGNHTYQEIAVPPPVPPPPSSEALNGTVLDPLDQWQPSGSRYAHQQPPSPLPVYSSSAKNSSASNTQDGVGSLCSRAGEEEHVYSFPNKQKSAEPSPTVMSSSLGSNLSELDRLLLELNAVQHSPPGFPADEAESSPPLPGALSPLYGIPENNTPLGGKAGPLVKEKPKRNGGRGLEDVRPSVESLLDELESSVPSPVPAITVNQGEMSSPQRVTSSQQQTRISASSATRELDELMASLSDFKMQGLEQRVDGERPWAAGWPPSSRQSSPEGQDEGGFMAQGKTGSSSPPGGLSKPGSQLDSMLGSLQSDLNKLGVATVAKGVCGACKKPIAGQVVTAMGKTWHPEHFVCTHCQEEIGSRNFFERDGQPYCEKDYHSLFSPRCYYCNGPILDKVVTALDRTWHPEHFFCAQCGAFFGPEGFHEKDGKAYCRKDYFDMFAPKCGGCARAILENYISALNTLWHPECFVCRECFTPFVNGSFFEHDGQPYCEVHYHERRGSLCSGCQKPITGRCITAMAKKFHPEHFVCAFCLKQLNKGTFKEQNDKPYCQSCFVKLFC
Molecule,compounds showing the most prominent effect on protein-protein interactions at focal adhesion site,disruption of protein-protein interactions at focal adhesion site,Activtiy (activity towards FAK/Paxillin displacement)
"O=[N+]([O-])/C=C/c1cccc(O)c1 [FootLocker 3, (E)-3-(2-nitrovinyl)phenol]",most prominent effect,efficiently disrupt protein-protein interactions at focal adhesion site,
"COc1cccc(/C=C/[N+](=O)[O-])c1 [FootLocker 4, (E)-1-methoxy-3-(2-nitrovinyl)benzene]",most prominent effect,efficiently disrupt protein-protein interactions at focal adhesion site,
"[N-]=[N+]=NCCOCCOCCOCCNC(=O)CCCCCCOc1cccc(/C=C/[N+](=O)[O-])c1 [FootLocker 7, (E)-N-(2-(2-(2-(2-azidoethoxy)ethoxy)ethoxy)ethyl)-7-(3-(2-nitrovinyl)phenoxy)heptanamide]",,efficiently disrupt protein-protein interactions at focal adhesion site,
"O=[N+]([O-])/C=C/c1ccccc1O [FootLocker 8, (E)-2-(2-nitrovinyl)phenol]",,efficiently disrupt protein-protein interactions at focal adhesion site,
"Cc1ccc(/C=C/[N+](=O)[O-])cc1 [FootLocker 10, (E)-1-methyl-4-(2-nitrovinyl) benzene]",most prominent effect,efficiently disrupt protein-protein interactions at focal adhesion site,
"O=[N+]([O-])/C=C/c1cccc(Br)c1 [FootLocker 11, (E)-1-bromo-3-(2-nitrovinyl)benzene]",,efficiently disrupt protein-protein interactions at focal adhesion site,
"O=[N+]([O-])/C=C/c1cccc(Cl)c1 [FootLocker 12, (E)-1-chloro-3-(2-nitrovinyl)benzene]",,efficiently disrupt protein-protein interactions at focal adhesion site,
"O=[N+]([O-])/C=C/c1cccc([N+](=O)[O-])c1 [FootLocker 13, (E)-1-nitro-3-(2-nitrovinyl)benzene]",most prominent effect,efficiently disrupt protein-protein interactions at focal adhesion site,
"C/C(=C\c1ccccc1)[N+](=O)[O-] [FootLocker 15, (E)-(2-nitroprop-1-en 1-yl)benzene]",,efficiently disrupt protein-protein interactions at focal adhesion site,
"C/C(=C\c1ccc(Br)cc1)[N+](=O)[O-] [FootLocker 16, 1-bromo-4-[(1E)-2-nitro-1-propenyl]benzene]",most prominent effect,efficiently disrupt protein-protein interactions at focal adhesion site,
"O=[N+]([O-])C=Cc1ccco1 [FootLocker 17, 2-(2-Nitrovinyl)-furan]",most prominent effect,efficiently disrupt protein-protein interactions at focal adhesion site,
"O=[N+]([O-])C=Cc1cccnc1 [FootLocker 18, 3-(2-nitro-vinyl)-pyridine]",,efficiently disrupt protein-protein interactions at focal adhesion site,
O=[N+]([O-])/C=C/c1cc(Br)cs1 [compound 1],,,++ (++ indicates displacing effect at 5 µM)
Nc1ccc(SC(C[N+](=O)[O-])c2ccc(Cl)cc2)cc1 (stereo not shown) [compound 2],,,++ (++ indicates displacing effect at 5 µM)
O=[N+]([O-])/C=C/c1cccc(O)c1 [compound 3],,,++ (++ indicates displacing effect at 5 µM)
COc1cccc(/C=C/[N+](=O)[O-])c1 [compound 4],,,++ (++ indicates displacing effect at 5 µM)
CCOC(=O)CCCCCOc1ccc(/C=C/[N+](=O)[O-])cc1 [compound 5],,,+ (+ at 20 µM)

Molecule,compounds showing the most prominent effect on protein-protein interactions at focal adhesion site,disruption of protein-protein interactions at focal adhesion site,Activtiy (activity towards FAK/Paxillin displacement)
[N-]=[N+]=NCCOCCOCCOCCNC(=O)CCCCCCOc1cccc(C=O)c1 [compound 6],,,-
[N-]=[N+]=NCCOCCOCCOCCNC(=O)CCCCCCOc1cccc(/C=C/[N+](=O)[O-])c1 [compound 7],,,+ (+ at 20 µM)
O=[N+]([O-])/C=C/c1ccccc1O [compound 8],,,+ (+ at 20 µM)
O=[N+]([O-])/C=C/c1ccccc1F [compound 9],,,++ (++ indicates displacing effect at 5 µM)
Cc1ccc(/C=C/[N+](=O)[O-])cc1 [compound 10],,,++ (++ indicates displacing effect at 5 µM)
O=[N+]([O-])/C=C/c1cccc(Br)c1 [compound 11],,,+ (+ at 20 µM)
O=[N+]([O-])/C=C/c1cccc(Cl)c1 [compound 12],,,+ (+ at 20 µM)
O=[N+]([O-])/C=C/c1ccc(F)cc1 [compound 14],,,++ (++ indicates displacing effect at 5 µM)
C/C(=C\c1ccc(Br)cc1)[N+](=O)[O-] [compound 16],,,++ (++ indicates displacing effect at 5 µM)
O=[N+]([O-])/C=C/c1ccco1 [compound 17],,,++ (++ indicates displacing effect at 5 µM)
O=[N+]([O-])/C=C/c1cccnc1 [compound 18],,,+ (+ at 20 µM)
O=[N+]([O-])/C=C/c1c[nH]c2ccccc12 [compound 19],,,-
O=[N+]([O-])/C=C/c1cn(-c2ccccc2)c2ccccc12 [compound 20],,,-
O=C/C=C/c1ccc(Cl)cc1 [compound 22],,,-
O=C(O)/C=C/c1cc(Br)cs1 [compound 24],,,-
(E)-ethyl 6-(4-(2-nitrovinyl)phenoxy)hexanoate [FootLocker 5],,efficiently disrupt protein-protein interactions at focal adhesion site,

# System: MDA-MB-231 breast cancer cells
# Assay: In vitro wound healing assay
# Type: cell-based, human
# Conditions: 3 µM, 25 h, serum-containing growth medium
# Procedure: Image J was used to automatically quantify FAK-containing focal adhesions due to local maxima of fluorescence intensity in the GFP-channel (5 to 70 pixel). The number of cells was automatically counted in the Hoechst channel. To test reproducibility of the system 40 control wells were quantified wherein four positions for each well were imaged. […] GFP-FAK mouse embryonic fibroblasts were seeded on fibronectin and incubated for 1 h with the indicated concentrations of the small compounds, respectively. […] GFP-FAK mouse embryonic fibroblasts were seeded on fibronectin and serum-starved overnight. The indicated concentrations of Mb31 were applied for 30 min. Cells were lysed and analyzed for paxillin and FAK protein level as well as FAK Tyr397 phosphorylation. […] The purified kinase domain of FAK was incubated with increasing amounts of Mb31 for 1 h at 30°C together with poly-Glu-Tyr as a FAK substrate. […] Serum-starved GFP-FAK mouse embryonic fibroblasts were stimulated with normal growth medium and incubated for 5 h with the indicated concentrations of the small molecule compounds, respectively. Cell viability was assessed by MTT assay. […] GFP-FAK MEFs were seeded on fibronectin and serum-starved overnight. Migration was stimulated by replacing the medium with normal growth medium. Migration of single cells was tracked for 8 h in 30 min intervals. Migration was recorded from cells that were cultured without serum (A), with serum (B) or with serum in the presence of 3 µM Mb31 (C). […] (A) GFP-FAK MEFs were seeded and serum-starved as in Figure 10. Cell migration was stimulated with normal growth medium and single cells were tracked for 5 h. (B) Mb31 was added and the same cells were tracked for additional 5 h. (C) Mean velocities of differently treated cells were plotted over time. […] NIH-v-Src fibroblasts were seeded on 2 µg/ml FN in DMEM/0.5%BSA and stimulated with 10 ng/ml EGF or kept unstimulated. […] Mouse embryonic fibroblasts (MEFs) were transfected with talin-mCherry and talin dynamics analyzed in focal adhesions using fluorescence recovery after photobleaching (FRAP). Cells were left untreated (A) or treated with 10 µM of Mb31 (B). In untreated cells, the mCherry intensity recovered, indicating replacement of bleached by non-bleached talin and therefore turnover of talin at focal adhesions. […] (C) Wound closure was microscopically analyzed and evaluated using ImageJ software.
# To determine if the migration of transformed cells can be blocked by FLocker1 and related compounds, human breast carcinoma cells (MDA-MB-231) were used in in vitro wound healing assays. […] The ability of the cells to migrate and close the wound space was monitored by microscopy and quantified (Figure 18B and C).
row,Molecule,migration of cancer cells / wound closure
1,"O=[N+]([O-])/C=C/c1cccc(O)c1 [FootLocker 3, (E)-3-(2-nitrovinyl)phenol]",retarded the migration of the cancer cells
